Each structure is given as a SMILES string. Like-named read-outs stand apart in the source and are kept apart here.

The source of these data is patent US8642788B2, “Activators of executioner procaspases 3, 6 and 7” (The Regents of the University of California, priority 2008, dated 2014).

What all share (type): biochemical
In one assay the target is T1, procaspase-3 (Homo sapiens, UniProt P42574).
T1 construct: His6 (C); made in house; host or cells: E. coli BL21(DE3)RP, pET-23b
T1 sequence (P42574 1-277): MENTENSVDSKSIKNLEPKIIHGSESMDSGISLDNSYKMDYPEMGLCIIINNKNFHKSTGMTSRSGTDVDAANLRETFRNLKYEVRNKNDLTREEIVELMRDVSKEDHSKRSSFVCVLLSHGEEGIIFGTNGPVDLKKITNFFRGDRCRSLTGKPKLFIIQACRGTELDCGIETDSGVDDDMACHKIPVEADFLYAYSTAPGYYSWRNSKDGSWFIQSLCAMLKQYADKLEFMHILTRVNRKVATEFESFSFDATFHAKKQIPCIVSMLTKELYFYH
The assay can be described thus: Executioner procaspase-3 activation assay (Ac-DEVD-AFC fluorogenic substrate). In outline: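 Procaspase-3 at 100 nM was incubated with activating compounds (100 nM to 100 uM) in 50 mM HEPES pH 7.4, 50 mM KCl, 1 mM DTT and 0.01% Triton-X100, the detergent limiting aggregation artefacts. Protein, substrate and inhibitor were kept as frozen aliquots and thawed just before use.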

The target of another assay is T2, procaspase-6 (Homo sapiens, UniProt P55212).
T2 sequence (P55212 1-293): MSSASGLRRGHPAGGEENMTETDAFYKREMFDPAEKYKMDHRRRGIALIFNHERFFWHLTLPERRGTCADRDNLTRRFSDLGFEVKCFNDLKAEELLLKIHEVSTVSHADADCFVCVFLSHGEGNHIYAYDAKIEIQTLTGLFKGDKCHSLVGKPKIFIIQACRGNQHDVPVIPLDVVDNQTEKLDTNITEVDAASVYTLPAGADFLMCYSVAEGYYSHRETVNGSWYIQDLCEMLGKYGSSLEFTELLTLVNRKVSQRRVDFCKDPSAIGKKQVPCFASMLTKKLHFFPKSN
The assay can be described thus: Executioner procaspase-6 activation assay (Ac-VEID-AFC fluorogenic substrate). The note with it: incubation with compound for 5 h at 37° C.; 100 nM procaspase. The method in brief:
(§1)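 Procaspase at 100 nM incubated with compound (100 nM–100 μM) in 50 mM HEPES pH 7.4, KCl, DTT, 0.01% Triton X-100, 3% DMSO, 37 °C for 5 h; then 25 μM Ac-DEVD-AFC (procaspase-7) or Ac-VEID-AFC (procaspase-6), kinetic fluorescence 30 min (ex 365/em 495); EC50 reported.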

For the next assay, the target named is T3, procaspase-7 (Homo sapiens, UniProt P55210).
T3 construct: His6 (C); made in house; host or cells: E. coli BL21(DE3)RP, pET-21b
T3 sequence (P55210 1-303): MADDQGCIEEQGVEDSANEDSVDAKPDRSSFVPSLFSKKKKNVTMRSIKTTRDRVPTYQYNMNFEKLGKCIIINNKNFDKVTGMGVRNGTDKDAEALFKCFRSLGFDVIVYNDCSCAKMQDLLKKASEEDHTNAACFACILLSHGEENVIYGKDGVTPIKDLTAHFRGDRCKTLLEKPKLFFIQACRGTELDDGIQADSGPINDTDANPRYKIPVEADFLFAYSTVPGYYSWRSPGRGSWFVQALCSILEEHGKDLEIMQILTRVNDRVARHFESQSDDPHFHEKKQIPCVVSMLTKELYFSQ
In words: Executioner procaspase-7 activation assay (Ac-DEVD-AFC fluorogenic substrate). The note with it: incubation with compound for 5 h at 37° C.; 100 nM procaspase. In outline: as §1

Where [1] appears, read: incubation with compound for 5 h at 37° C., 100 nM procaspase, read-out: Procaspase Activation 3.

With `COc1cccc2cc(C(=O)Nc3cccc(-c4ccc(C#N)c(F)c4)c3)c(=O)oc12` [compound 144, 8-Methoxy-2-oxo-2H-chromene-3-carboxylic acid (4′-cyano-3′-fluoro-biphenyl-3-yl)-amide], the EC50 at procaspase-3 (setting [1]), at procaspase-6 and at procaspase-7 was above 100 µM throughout.
`N#Cc1cc(-c2cccc(NC(=O)c3cc4cccc(O)c4oc3=O)c2)ccc1F` [compound 145, 8-Hydroxy-2-oxo-2H-chromene-3-carboxylic acid (3′-cyano-4′-fluoro-biphenyl-3-yl)-amide]: the EC50 on procaspase-3 (setting [1]), at procaspase-6 and on procaspase-7 was above 100 µM each time.
For `COc1cccc2cc(C(=O)Nc3cccc(-c4ccc(F)c(C#N)c4)c3)c(=O)oc12` [compound 146, 8-Methoxy-2-oxo-2H-chromene-3-carboxylic acid (3′-cyano-4′-fluoro-biphenyl-3-yl)-amide], the EC50 at procaspase-3 (setting [1]), on procaspase-6 and at procaspase-7 was above 100 µM throughout.
Turning to `N#Cc1cccc(-c2cccc(NC(=O)c3cc4cccc(O)c4oc3=O)c2)c1` [compound 147, 8-Hydroxy-2-oxo-2H-chromene-3-carboxylic acid (3′-cyano-biphenyl-3-yl)-amide], the EC50 on procaspase-3 (setting [1]), at procaspase-6 and at procaspase-7 was above 100 µM in each case.
For `COc1cccc2cc(C(=O)Nc3cccc(-c4cccc(C#N)c4)c3)c(=O)oc12` [compound 148, 8-Methoxy-2-oxo-2′-chromene-3-carboxylic acid (3′-cyano-biphenyl-3-yl)-amide], the EC50 at procaspase-3 (setting [1]), at procaspase-6 and at procaspase-7 was above 100 µM throughout.
For the molecule `O=C(Nc1cccc(-c2cn[nH]c2)c1)c1cc2cccc(O)c2oc1=O` [compound 149, 8-Hydroxy-2-oxo-2H-chromene-3-carboxylic acid [3-(1H-pyrazol-4-yl)-phenyl]-amide], the EC50 on procaspase-3 (setting [1]), at procaspase-6 and at procaspase-7 was above 100 µM in each case.
Turning to `COc1cccc2cc(C(=O)Nc3cccc(-c4cn[nH]c4)c3)c(=O)oc12` [compound 150, 8-Methoxy-2-oxo-2H-chromene-3-carboxylic acid [3-(1H-pyrazol-4-yl)-phenyl]-amide], the EC50 at procaspase-3 (setting [1]), on procaspase-6 and on procaspase-7 was above 100 µM in each case.
On to `Cn1nccc1-c1cccc(NC(=O)c2cc3cccc(O)c3oc2=O)c1` [compound 151, 8-Hydroxy-2-oxo-2H-chromene-3-carboxylic acid [3-(2-methyl-2H-pyrazol-3-yl)-phenyl]-amide], for which the EC50 at procaspase-3 (setting [1]) was 10 to 50 µM; at procaspase-6, above 100 µM; at procaspase-7 it was 10 to 50 µM.
Consider `COc1cccc2cc(C(=O)Nc3cccc(-c4ccnn4C)c3)c(=O)oc12` [compound 152, 8-Methoxy-2-oxo-2H-chromene-3-carboxylic acid [3-(2-methyl-2H-pyrazol-3-yl)-phenyl]-amide], for which the EC50 on procaspase-3 (setting [1]), on procaspase-6 and at procaspase-7 was above 100 µM each time.
Regarding `Cc1noc(C)c1-c1cccc(NC(=O)c2cc3cccc(O)c3oc2=O)c1` [compound 153, 8-Hydroxy-2-oxo-2H-chromene-3-carboxylic acid [3-(3,5-dimethyl-isoxazol-4-yl)-phenyl]-amide], the EC50 is 10 to 50 µM at procaspase-3 (setting [1]), above 100 µM at procaspase-6 and 10 to 50 µM on procaspase-7.
Regarding `COc1cccc2cc(C(=O)Nc3cccc(-c4c(C)noc4C)c3)c(=O)oc12` [compound 154, 8-Methoxy-2-oxo-2H-chromene-3-carboxylic acid [3-(3,5-dimethyl-isoxazol-4-yl)-phenyl]-amide], the EC50 at procaspase-3 (setting [1]), on procaspase-6 and at procaspase-7 was above 100 µM each time.
Consider `O=C(Nc1cccc(-c2ccn[nH]2)c1)c1cc2cccc(O)c2oc1=O` [compound 155, 8-Hydroxy-2-oxo-2H-chromene-3-carboxylic acid [3-(2H-pyrazol-3-yl)-phenyl]-amide], for which the EC50 on procaspase-3 (setting [1]), on procaspase-6 and at procaspase-7 was above 100 µM throughout.
With `COc1cccc2cc(C(=O)Nc3cccc(-c4ccn[nH]4)c3)c(=O)oc12` [compound 156, 8-Methoxy-2-oxo-2H-chromene-3-carboxylic acid [3-(2H-pyrazol-3-yl)-phenyl]-amide], the EC50 at procaspase-3 (setting [1]), on procaspase-6 and at procaspase-7 was above 100 µM throughout.
With `O=C(Nc1cccc(-c2ccc3[nH]c(=O)[nH]c3c2)c1)c1cc2cccc(O)c2oc1=O` [compound 157, 8-Hydroxy-2-oxo-2H-chromene-3-carboxylic acid [3-(2-oxo-2,3-dihydro-1H-benzoimidazol-5-yl)-phenyl]-amide], the EC50 on procaspase-3 (setting [1]), at procaspase-6 and at procaspase-7 was above 100 µM each time.
Turning to `COc1cccc2cc(C(=O)Nc3cccc(-c4ccc5[nH]c(=O)[nH]c5c4)c3)c(=O)oc12` [compound 158, 8-Methoxy-2-oxo-2H-chromene-3-carboxylic acid [3-(2-oxo-2,3-dihydro-1H-benzoimidazol-5-yl)-phenyl]-amide], the EC50 on procaspase-3 (setting [1]), at procaspase-6 and at procaspase-7 was above 100 µM each time.
In the case of `O=C(Nc1cccc(-c2ccc3nonc3c2)c1)c1cc2cccc(O)c2oc1=O` [compound 159, 8-Hydroxy-2-oxo-2H-chromene-3-carboxylic acid (3-benzo[1,2,5]oxadiazol-5-yl-phenyl)-amide], the EC50 at procaspase-3 (setting [1]), on procaspase-6 and on procaspase-7 was above 100 µM each time.
Turning to `COc1cccc2cc(C(=O)Nc3cccc(-c4ccc5nonc5c4)c3)c(=O)oc12` [compound 160, 8-Methoxy-2-oxo-2H-chromene-3-carboxylic acid (3-benzo[1,2,5]oxadiazol-5-yl-phenyl)-amide], the EC50 at procaspase-3 (setting [1]), at procaspase-6 and at procaspase-7 was above 100 µM each time.
For `O=C(Nc1cccc(-c2ccc3occc(=O)c3c2)c1)c1cc2cccc(O)c2oc1=O` [compound 161, 8-Hydroxy-2-oxo-2H-chromene-3-carboxylic acid [3-(4-oxo-4H-chromen-6-yl)-phenyl]-amide], the EC50 at procaspase-3 (setting [1]) is 0.5 to 10 µM; on procaspase-6, above 100 µM; at procaspase-7 it was above 100 µM.
With `COc1cccc2cc(C(=O)Nc3cccc(-c4ccc5occc(=O)c5c4)c3)c(=O)oc12` [compound 162, 8-Methoxy-2-oxo-2H-chromene-3-carboxylic acid [3-(4-oxo-4H-chromen-6-yl)-phenyl]-amide], the figures for the EC50 on procaspase-3 (setting [1]), at procaspase-6 and at procaspase-7 were above 100 µM, 0.5 to 10 µM and above 100 µM, respectively.
For `Cn1ccc2cc(-c3cccc(NC(=O)c4cc5cccc(O)c5oc4=O)c3)ccc21` [compound 163, 8-Hydroxy-2-oxo-2H-chromene-3-carboxylic acid [3-(1-methyl-1H-indol-5-yl)-phenyl]-amide], the EC50 on procaspase-3 (setting [1]), on procaspase-6 and on procaspase-7 was above 100 µM each time.
As for `COc1cccc2cc(C(=O)Nc3cccc(-c4ccc5c(ccn5C)c4)c3)c(=O)oc12` [compound 164, 8-Methoxy-2-oxo-2H-chromene-3-carboxylic acid [3-(1-methyl-1H-indol-5-yl)-phenyl]-amide], the EC50 on procaspase-3 (setting [1]), on procaspase-6 and on procaspase-7 was above 100 µM throughout.
As to `O=C(Nc1cccc(-c2ccc3cc[nH]c3c2)c1)c1cc2cccc(O)c2oc1=O` [compound 165, 8-Hydroxy-2-oxo-2H-chromene-3-carboxylic acid [3-(1H-indol-6-yl)-phenyl]-amide], the EC50 at procaspase-3, at procaspase-6 and on procaspase-7 was above 100 µM in each case.
Regarding `COc1cccc2cc(C(=O)Nc3cccc(-c4ccc5cc[nH]c5c4)c3)c(=O)oc12` [compound 166, 8-Methoxy-2-oxo-2H-chromene-3-carboxylic acid [3-(1H-indol-6-yl)-phenyl]-amide], the EC50 at procaspase-3, on procaspase-6 and at procaspase-7 was above 100 µM throughout.
